The values that follow come from paper PMC10747453, “Perturbations in Osteogenic Cell Fate Following Exposure to Constituents Present in Tobacco: A Combinatorial Study” (Toxics, 2023).

The structures appear in SMILES notation. “Also recorded” adds a separate entry of the source. Where a name gives a salt, the structure may show the parent alone. Read-outs that look alike come from different tables or passages of the source.

Series [1] relates to osteogenically differentiating human embryonic stem cells and fibroblasts. Briefly: hESTo biostatistical prediction model (embryotoxicity class). Conditions: for Embryotoxicity classification by the biostatistical model, in words: hESTo, skeletal differentiation. The source says: (§1) Half-maximal inhibitory doses of cytotoxicity (IC50) and osteogenic differentiation (ID50) were taken from concentration–response curves generated in GraphPad Prism (9.2., GraphPad Software Inc., San Diego, CA, USA) with the “nonlinear regression” function). A biostatistical prediction model based on linear discriminant functions was employed to classify the test chemical into one out of three embryotoxicity categories (strong, weak, and non-embryotoxic). In double combination analyses, a t-test was performed comparing combination to single constituent ID50. For triple combination analyses, a one-way ANOVA with Dunnett’s multiple comparison test (single constituent vs. combination) using GraphPad Prism was conducted. A p-value below 0.05 was considered significant. Heatmaps for double and triple exposures were generated in GraphPad Prism 9.2. Calcium-to-MTT ratios were calculated in Microsoft Excel and imported to ClustVis to generate a principal-component-analysis-based clustered heatmap.
Half-maximal inhibitory concentrations for cell viability (IC50 hESC) and differentiation (ID50 Ca^2+ hESC) were established for penicillin G and all-trans retinoic acid from concentration–response curves. The hESTo then compares these two endpoints to the half-maximal inhibitory concentration for cell viability resulting from exposure of fibroblast cells to the same test compound (IC50 MTT hFF) (Figure 3).

Series [2] concerns osteogenically differentiating H9 hESCs. Briefly: hESTo calcium assay, osteogenic differentiation of hESCs. The class given is cell-based, human. The settings on record: for IC50: Homo sapiens, 480 h, read-out: ID50 Ca2+ hESC (half-maximal inhibitory concentration of differentiation). How it is done:
Differentiation was induced from hESC cultures through the addition of a control differentiation medium (CDM) composed of DMEM, 15% FBS (Atlanta Biologicals, Flowery Branch, GA, USA), 1% (v/v) non-essential amino acids, 50 U/mL penicillin, 50 µg/mL streptomycin, and 0.1 mM β-mercaptoethanol. Five days after this initial medium change, CDM was supplemented with 1.2 × 10^−7 M 1,25α(OH)2 vitamin D3 (Calbiochem, Burlington, MA, USA), 0.1 mM β-glycerophosphate, and 20.8 µg/mL ascorbic acid.
(§2) Cells were cultured with concomitant chemical treatment in a double-blind, vehicle-controlled study. […] 241571), and urethane (Sigma Aldrich, cat. no. U2500) were purchased from the indicated companies. Stock solutions were made in DMEM or dimethylsulfoxide, depending on chemical solubility, sonicated when necessary, sterile filtered (0.1 µm), and stored at −20 °C. For liquids, concentrations were calculated from their density. Final dilutions were made in appropriate cell culture medium upon additional sonication of the stock after thawing. Chemical cell treatment started on day 0 of culture/differentiation and continued through day 20 in both H9 hESCs and hFF cells. Medium, including chemical dilutions, were made fresh and changed every other day. All exposures were performed in biological triplicate, each containing technical quintuplicates.
Quantification of calcium in the extracellular matrix of the cultures was performed using a calcium assay normalized to protein content. First, cells were lysed with radio-immunoprecipitation buffer (1% NP40, 0.5% sodium deoxycholate, 0.1% sodium dodecyl sulfate in PBS) on day 20 of cellular differentiation. The remaining matrix was dissolved with 1 N HCl and collected. Both lysates were assayed with Arsenazo III (Genzyme), and absorbance was measured at 655 nm (iMark microplate reader; Bio-Rad Laboratories, Hercules, CA, USA). Absorbances were compared to a CaCl2 standard, and total calcium content was normalized to the total protein content of the sample determined by a Lowry assay, measured against a bovine serum albumin standard curve. The Lowry assay was read at 750 nm (iMark microplate reader; Bio-Rad Laboratories) after a 15 min micro-shake incubation. Calculation of final normalized calcium content was performed according to a previously published formula [33].
as §1

A short description of series [3]: hESTo MTT assay, hESC viability. Conditions: human. How it is done: (§3) Cells were cultured with concomitant chemical treatment in a double-blind, vehicle-controlled study. […] U2500) were purchased from the indicated companies. […] For liquids, concentrations were calculated from their density. Final dilutions were made in appropriate cell culture medium upon additional sonication of the stock after thawing. Chemical cell treatment started on day 0 of culture/differentiation and continued through day 20 in both H9 hESCs and hFF cells. Medium, including chemical dilutions, were made fresh and changed every other day. All exposures were performed in biological triplicate, each containing technical quintuplicates.
(§4) Viability response to constituent exposure was determined by 3-[4,5-dimethylthiazol-2yl]-2,5-diphenylterazolium bromide (MTT) assay. Cells were incubated with MTT (5 mg/mL) at 37 °C for 2 h. Following incubation, the supernatant was removed and replaced with 0.04 mol/L HCl in isopropanol. The plate was placed on a shaker for 15 min to dissolve aggregates. The optical density of the solution was read at 595 nm (iMark microplate reader; BioRad).
as §1
On the technique in general: Tetrazolium assays rely on reduction of a dye to a coloured formazan, in cell work by metabolically active cells.

The test system of series [4] is human foreskin fibroblasts (hFF-1). Description: hESTo MTT assay, fibroblast viability. Conditions: for IC50: Homo sapiens, HFF-1, read-out: IC50 MTT hFF. How it is done: Human embryonic stem cells of the line H9 (WiCell) were seeded on Matrigel-coated culture plates and cultured in mTeSR1 medium (Stem Cell Technologies, Seattle, WA, USA) at 37 °C with 5% CO2. Approximately every four days, colonies were treated with accutase for 2–4 min at room temperature to dislodge colonies from the plastic and passaged into fresh Matrigel-coated wells. Human foreskin fibroblasts (hFF-1, American Type Culture Collection, Manassas, VA, USA, cat.no. SCRC-1041), were cultured on 0.1% gelatin-coated 6-well plates in Dulbecco’s Modified Eagle Medium (DMEM) with 10% fetal bovine serum, 1% (v/v) non-essential amino acids, 50 U/mL penicillin, and 50 µg/mL streptomycin at 37 °C in a controlled humidified 5% CO2 incubator. Upon 70% confluency, hFFs were passaged at a 1:6 ratio using phosphate-buffered saline (PBS) washes and 2.5% Trypsin/EDTA every two to four days. While in culture, all cells were routinely checked for bacterial, yeast, and microbial contamination using an inverted microscope and tested for mycoplasma using a PCR-based detection kit (abcam, Fremont, CA, USA, ab289834).
as §2, §4, §1

Series [5] concerns H9 hESCs. Description: hESTo MTT assay, hESC viability. How it is done: as §3, §4, §1
The conditions of series [6]: human.
Method: (C) Table listing IC50 and ID50 values, calculated via GraphPad Prism and expressed as µg/mL, embryotoxicity classes calculated according to Genschow et al. [24], and content per cigarette (cig) or gram tobacco as well as actual and calculated plasma concentrations assuming a plasma volume of 3000 mL. […] ID50 = half-maximal inhibitory concentration of differentiation. IC50 = half-maximal concentration of cytotoxicity. hESC, human embryonic stem cell; hFF, human foreskin fibroblast; ND, not determined from the literature [37, 38, 39, 40, 41, 42, 43, 44, 45, 46, 47, 48, 49].
For series [7], the system named is cultured rat embryos. Further details: method as in PMID 8079346. The settings on record: cited from earlier work.
For series [8] the following is noted: in vivo; cited from earlier work.
Series [9] relates to other aquatic species. The settings on record: cited from earlier work.
The mark [10] stands for this setting: H9 hESC, exposure day 0 through day 20, calcium normalized to protein.

Regarding `CC=O` [Acetaldehyde], the “Embryotoxicity classification by the biostatistical model, in words” value (from here on “Embryotoxicity classification”) in series [1] was “strongly developmentally osteotoxic”.

As for `C=CC=O` [Acrolein, acrolein], the “Embryotoxicity classification” value in series [1] is on record as “strongly developmentally osteotoxic”.

As for `C=CC(N)=O` [Acrylamide, acrylamide], the “Effect on H9 hESC differentiation potential / calcification, in words” value in series [2] is given as “caused reductions in cell viability as well as calcification but in very high concentration ranges”. Further, the “Embryotoxicity classification” value in series [1] is reported as “non-embryotoxic”.

`CC1=C(/C=C/C(C)=C/C=C/C(C)=C/C(=O)O)C(C)(C)CCC1` [All-trans retinoic acid, all-trans retinoic acid, reference compound]: in series [3], the IC50 at 20 days came out at 0.036 µg/mL. For the same molecule, the IC50 in [4] is 0.061 µg/mL.

As to `c1ccc2cc3c(ccc4ccccc43)cc2c1` [Benz[a]anthracene, benz[a]anthracene], the “ID50 Ca2+ hESC (half-maximal inhibitory concentration of differentiation)” value in series [2] (setting [10]) came to 239.5 µg/mL. Besides, in series [5] (H9 hESC, exposure day 0 through day 20), the “IC50 MTT hESC (half-maximal concentration of cytotoxicity)” value is 337.3 µg/mL. Besides, the “Effect on hFF cell viability, in words” value in series [4] (tested concentration range up to 1000 µg/mL) was “did not produce a change in cell viability”. Also, the “Embryotoxicity classification” value in series [1] was “non-embryotoxic”.

On to `c1ccc2c(c1)cc1ccc3cccc4ccc2c1c34` [Benzo[a]pyrene, benzo[a]pyrene], for which the IC50 stood at 2.11 ± 0.65 µg/mL in series [2] (setting [10]) and 1020 ± 653 µg/mL in [4]. Besides, in series [3], the IC50 at 20 days is 52.9 ± 428 µg/mL. Moreover, the Calculated plasma concentration in series [6] is 0.000036 µg/mL.

With `c1ccc2c(c1)-c1cccc3c1c-2cc1ccccc13` [Benzo[b]fluoranthene, benzo[b]fluoranthene], the IC50 in series [2] (setting [10]) is 25.8 ± 7.24 µg/mL; in [4], 110 ± 76.1 µg/mL. Besides, in series [3], the IC50 at 20 days amounted to 61 ± 14.8 µg/mL. Moreover, in [1], the “Embryotoxicity classification” value is given as “neither chemical classified as developmentally osteotoxic”.

Turning to `Oc1ccccc1O` [Catechol, catechol], the IC50 came out at 0.258 ± 0.166 µg/mL in [2] and 9.29 ± 1.71 µg/mL in series [4]. Also, the “hESC differentiation endpoint relative to solvent control” value in [2] (around 0.882 µg/mL) is listed as “below 25%”. In addition, the IC50 at 20 days in series [3] came out at 0.071 ± 0.023 µg/mL. Moreover, the “hESC cytotoxicity endpoint relative to solvent control” value in [5] (around 0.882 µg/mL) was “below 25%”. The “Concentration above which hFF cell viability changed” value in [4] is on record as “above 0.882 µg/mL”. For the same molecule, in [1], the “Embryotoxicity classification” value is “strongly embryotoxic; also recorded: strongly developmentally osteotoxic”. Moreover, the Half-maximal lethality in [7] is 50 to 100 µM.

On to `CN1C(=O)CC[C@H]1c1cccnc1` [Cotinine, cotinine], for which the IC50 in series [2] (setting [10]) came out at 272 ± 82.8 µg/mL; in series [4], 497 ± 139 µg/mL. For the same molecule, the IC50 at 20 days in series [3] is 341 ± 72.9 µg/mL. Besides, in series [1], the “Embryotoxicity classification” value was “non-embryotoxic”. For the same molecule, the Approx. plasma concentration in series [8] is 0.068 to 0.3 µg/mL.

As to `O=c1ccc2ccccc2o1` [Coumarin, coumarin], the results for the IC50 in [2] (setting [10]) and in series [4] were 0.024 ± 0.009 µg/mL and 0.114 µg/mL, respectively. For the same molecule, the IC50 at 20 days in series [3] was 0.013 µg/mL. Further, the “Embryotoxicity classification” value in series [1] was “strongly developmentally osteotoxic”.

As to `CN1CCC(c2cccnc2)C1` (stereo not drawn) [Isonicotine, isonicotine], the “Embryotoxicity classification” value in series [1] was “neither chemical classified as developmentally osteotoxic”.

Turning to `CN1CCC[C@H]1c1cccnc1` [Nicotine, nicotine], the IC50 in [2] (setting [10]) is 633 ± 2350 µg/mL; in series [4], above 1000 µg/mL. In series [2] (all tested concentration ranges), the “Effect on H9 hESC differentiation potential / calcification, in words” value is on record as “a decrease in calcification was seen in the higher concentrations”. Also, in series [3], the IC50 at 20 days was above 1000 µg/mL. Also, the “Embryotoxicity classification” value in series [1] is on record as “non-embryotoxic”.

On to `CC1(C)S[C@@H]2[C@H](NC(=O)Cc3ccccc3)C(=O)N2[C@H]1C(=O)O` [Penicillin G, penicillin G sodium salt, reference compound], for which, in series [3], the IC50 at 20 days was above 1000 µg/mL. In series [4], the IC50 was above 1000 µg/mL. Further, the Embryotoxicity class result in series [1] (biostatistical model of Genschow et al. from ID50 hESC, IC50 hESC, IC50 hFF) was “I”.

For `c1ccc2ncccc2c1` [Quinoline, quinoline], the IC50 came out at 2.27 ± 0.76 µg/mL in series [2] (setting [10]) and 59.4 ± 19.1 µg/mL in series [4]. The IC50 at 20 days in series [3] was determined as 2.65 ± 0.51 µg/mL. Also, in series [1], the “Embryotoxicity classification” value was “weakly developmentally osteotoxic”. Further, the Calculated plasma concentration in [6] was 0.000045 µg/mL. Besides, in series [9], the Median lethal dose was 11 µg/mL.

Regarding `CCOC(N)=O` [Urethane, urethane], the IC50 in series [2] (setting [10]) and in [4] was above 1000 µg/mL each time. In addition, the IC50 at 20 days in series [3] is above 1000 µg/mL. Also, the “Embryotoxicity classification” value in series [1] is on record as “non-embryotoxic”.
